Patent US8153787B2 (priority 2005, dated 2012)
≈ marks a conversion by molar mass, not a printed value. Read-outs that look alike come from different tables or passages of the source.

What was measured:
[1] = system: Varicella-Zoster Virus (VZV); experiment: microbe, parasite or virus in culture; assay type: cell-based; conditions: Human alphaherpesvirus 3, HEL
[2] = system: Human Cytomegalovirus (HCMV); experiment: microbe, parasite or virus in culture; assay type: cell-based
Vaccinia virus = experiment: organism not typed; assay type: cell-based; conditions: HEL
Cowpox virus (Brighton) = experiment: microbe, parasite or virus in culture; assay type: cell-based; conditions: Cowpox virus, HEL, read-out: EC50 Cowpox virus Brighton
Orf virus (NZ2) = experiment: microbe, parasite or virus in culture; assay type: cell-based; conditions: Orf virus, HEL, read-out: EC50 Orf virus NZ2
[3] = system: herpes simplex virus type 1 (HSV-1); experiment: microbe, parasite or virus in culture; assay type: cell-based; conditions: Human alphaherpesvirus 1, HEL, read-out: EC50 HSV-1 (Kos strain)
[4] = system: herpes simplex virus type 2 (HSV-2); experiment: microbe, parasite or virus in culture; assay type: cell-based; conditions: Human alphaherpesvirus 2, HEL, read-out: EC50 HSV-2 (G strain)
[5] = system: primate polyomavirus (SV40); experiment: microbe, parasite or virus in culture; assay type: cell-based, simian polyomavirus SV40; conditions: for EC50: Polyomavirus sp., BSC-1, in Primates
murine polyomavirus = experiment: microbe, parasite or virus in culture; assay type: cell-based; conditions: for EC50: Alphapolyomavirus muris, UC1, UC1B
in vitro [6] = conditions: human, […]
in vitro [7] = conditions: African green monkey
in vitro [8] = conditions: mouse
[9] = system: Vaccinia virus (Western Reserve) and recombinant viruses harboring the A314T, A684V or A314T+A684V mutations; assay type: cell-based
[10] = system: Molluscum contagiosum virus (MCV) clinical isolates; experiment: microbe, parasite or virus in culture; assay type: cell-based; conditions: Keratinocyte
[11] = system: vaccinia virus (Lederle strain); experiment: microbe, parasite or virus in culture; assay type: cell-based; conditions: Orthopoxvirus vaccinia, HEL
HSV-1 (Kos strain) = experiment: microbe, parasite or virus in culture; assay type: cell-based, Herpes simplex virus type 1; conditions: Human alphaherpesvirus 1, HEL
HEL cells = conditions: human
HSB-2 cells = conditions: human
MOLT-3 cells = conditions: human
in vitro [12] = conditions: human
[13] = read-out: EC50 VZV 07/1 strain (HEL cells)
[14] = read-out: EC50 VZV OKA strain (HEL cells)
[15] = Human betaherpesvirus 5, AD169, HEL, read-out: EC50 HCMV AD-169 strain (HEL cells)
[16] = Human betaherpesvirus 5, HEL, read-out: EC50 HCMV Davis strain (HEL cells)
[17] = read-out: EC50 Vaccinia Virus Lister
[18] = Orthopoxvirus vaccinia, read-out: EC50 Vaccinia Virus Copenhagen
[19] = Orthopoxvirus vaccinia, read-out: EC50 Vaccinia Virus Lederle
[20] = Orthopoxvirus vaccinia, read-out: EC50 Vaccinia Virus WR
[21] = read-out: antiviral activity (EC50) SV40 PML-1 strain EK
[22] = read-out: antiviral activity (EC50) SV40 PML-2 strain DAR
[23] = read-out: antiviral activity (EC50) SV40 strain A2895
[24] = read-out: antiviral activity (EC50) 2PTA2
[25] = read-out: antiviral activity (EC50) LID-1
[26] = read-out: antiviral activity (EC50) MN/RDE Toronto
[27] = read-out: antiviral activity (EC50) PTA
[28] = read-out: EC50 VZV YS strain (HEL cells)
[29] = read-out: EC50 VZV YS-R strain (HEL cells)

## Nc1ncn(C[C@H]2COP(=O)(O)CO2)c(=O)n1 [Compound 11, 1-{[(5S)-2-Hydroxy-2-oxido-1,4,2-dioxaphosphinan-5-yl]methyl}-5-azacytosine]
[1]; [13]
  EC50: 50 ng/mL (≈ 0.191 µM)
[1]; [14]
  EC50: 80 ng/mL (≈ 0.305 µM)
[2]; [15]
  EC50: 93 ng/mL (≈ 0.355 µM)
[2]; [16]
  EC50: 61 ng/mL (≈ 0.233 µM)
Vaccinia virus; [17]
  EC50: 1.38 µg/mL (≈ 5.26 µM)
Vaccinia virus; [18]
  EC50: 1.76 µg/mL (≈ 6.71 µM)
Vaccinia virus; [19]
  EC50: 3.1 µg/mL (≈ 11.8 µM)
Vaccinia virus; [20]
  EC50: 2.08 µg/mL (≈ 7.93 µM)
Cowpox virus (Brighton)
  EC50: 5.64 µg/mL (≈ 21.5 µM)
Orf virus (NZ2)
  EC50: 0.09 µg/mL (≈ 0.343 µM)
[3]
  EC50: 0.017 µg/mL (≈ 0.0648 µM)
[4]
  EC50: 0.58 µg/mL (≈ 2.21 µM)
[5]
  selectivity index SV40 PML-1 strain EK: 8
  selectivity index SV40 PML-2 strain DAR: 7
  selectivity index SV40 strain A2895: 8
[5]; [21]
  EC50: 4.6 µg/mL (≈ 17.5 µM)
[5]; [22]
  EC50: 5.05 µg/mL (≈ 19.3 µM)
[5]; [23]
  EC50: 4.39 µg/mL (≈ 16.7 µM)
Murine polyomavirus
  selectivity index 2PTA2: 13
  selectivity index LID-1: 7
  selectivity index MN/RDE Toronto: 17
  selectivity index PTA: 7
Murine polyomavirus; [24]
  EC50: 4.39 µg/mL (≈ 16.7 µM)
Murine polyomavirus; [25]
  EC50: 8.05 µg/mL (≈ 30.7 µM)
Murine polyomavirus; [26]
  EC50: 3.43 µg/mL (≈ 13.1 µM)
Murine polyomavirus; [27]
  EC50: 8.59 µg/mL (≈ 32.8 µM)
In vitro [6]
  CC50: > 50 µg/mL
In vitro [7]
  CC50: 36.4 µg/mL (≈ 139 µM)
In vitro [8]
  CC50: 58.4 µg/mL (≈ 223 µM)

## CCCCCCCCCCCCCCCCOCCOP1(=O)CO[C@@H](Cn2cnc(N)nc2=O)CO1 (stereo partly drawn) [Compound 12, hexadecyloxyethyl ester of 1-{[(5S)-2-Hydroxy-2-oxido-1,4,2-dioxaphosphinan-5-yl]methyl}-5-azacytosine]
[1]; [13]
  EC50: < 0.02 ng/mL
[1]; [14]
  EC50: < 0.02 ng/mL
[1]; [28]
  EC50: < 0.02 ng/mL
[1]; [29]
  EC50: < 0.02 ng/mL
[2]; [15]
  EC50: < 0.02 ng/mL
[2]; [16]
  EC50: < 0.02 ng/mL
Vaccinia virus; [17]
  EC50: < 0.032 µg/mL
Vaccinia virus; [18]
  EC50: < 0.032 µg/mL
Vaccinia virus; [19]
  EC50: < 0.032 µg/mL
Vaccinia virus; [20]
  EC50: 0.072 µg/mL (≈ 0.136 µM)
Cowpox virus (Brighton)
  EC50: < 0.032 µg/mL
Orf virus (NZ2)
  EC50: < 0.032 µg/mL
[3]
  EC50: 0.072 µg/mL (≈ 0.136 µM)
[4]
  EC50: 0.36 µg/mL (≈ 0.678 µM)
[5]
  selectivity index SV40 PML-1 strain EK: 57.6
  selectivity index SV40 PML-2 strain DAR: 38.7
  selectivity index SV40 strain A2895: 44.5
[5]; [21]
  EC50: 0.15 µg/mL (≈ 0.283 µM)
[5]; [22]
  EC50: 0.18 µg/mL (≈ 0.339 µM)
[5]; [23]
  EC50: 0.16 µg/mL (≈ 0.302 µM)
Murine polyomavirus
  selectivity index 2PTA2: 33.8
  selectivity index LID-1: 21.3
  selectivity index MN/RDE Toronto: 34.9
  selectivity index PTA: 35.6
Murine polyomavirus; [24]
  EC50: 0.3 µg/mL (≈ 0.565 µM)
Murine polyomavirus; [25]
  EC50: 0.47 µg/mL (≈ 0.886 µM)
Murine polyomavirus; [26]
  EC50: 0.29 µg/mL (≈ 0.547 µM)
Murine polyomavirus; [27]
  EC50: 0.28 µg/mL (≈ 0.528 µM)
In vitro [6]
  CC50: 6 µg/mL (≈ 11.3 µM)
In vitro [7]
  CC50: 7.1 µg/mL (≈ 13.4 µM)
In vitro [8]
  CC50: 10 µg/mL (≈ 18.8 µM)

## CCCCCCCCCCCCCCCCCCOP1(=O)CO[C@@H](Cn2cnc(N)nc2=O)CO1 (stereo partly drawn) [Compound 15, octadecyl ester of 1-{[(5S)-2-hydroxy-2-oxido-1,4,2-dioxaphosphinan-5-yl]methyl}-5-azacytosine]
[1]; [14]
  EC50: 63 ng/mL (≈ 0.122 µM)
[2]; [15]
  EC50: 3.7 ng/mL (≈ 0.00719 µM)
[2]; [16]
  EC50: 1.4 ng/mL (≈ 0.00272 µM)
In vitro [6]
  CC50: > 100 µg/mL

## Nc1cnn(C[C@@H](CO)OCP(=O)(O)O)c(=O)n1 [HPMP-6-azaC analogue, (S)-1-[3-hydroxy-2-(phosphonomethoxy)propyl]-6-azacytosine]
[1]; [13]
  EC50: 18400 ng/mL (≈ 65.7 µM)
[1]; [14]
  EC50: 38200 ng/mL (≈ 136 µM)
[1]; [28]
  EC50: 42000 ng/mL (≈ 150 µM)
[1]; [29]
  EC50: 17000 ng/mL (≈ 60.7 µM)
[2]; [15]
  EC50: 30000 ng/mL (≈ 107 µM)
[2]; [16]
  EC50: 37300 ng/mL (≈ 133 µM)
Vaccinia virus; [17]
  EC50: ≥ 79.3 µg/mL
Vaccinia virus; [18]
  EC50: > 100 µg/mL
Vaccinia virus; [19]
  EC50: ≥ 81.6 µg/mL
Vaccinia virus; [20]
  EC50: > 100 µg/mL
Cowpox virus (Brighton)
  EC50: > 100 µg/mL
Orf virus (NZ2)
  EC50: ≥ 63.8 µg/mL
In vitro [6]
  CC50: > 50 µg/mL

## Nc1ccn(C[C@@H](CO)OCP(=O)(O)O)c(=O)n1 [HPMPC, (S)-1-(3-hydroxy-2-phosphonylmethoxypropyl)cytosine, reference compound]
[1]; [13]
  EC50: 50 ng/mL (≈ 0.179 µM)
[1]; [14]
  EC50: 200 ng/mL (≈ 0.716 µM)
[2]; [15]
  EC50: 200 ng/mL (≈ 0.716 µM)
[2]; [16]
  EC50: 300 ng/mL (≈ 1.07 µM)
Vaccinia virus; [17]
  EC50: 2.45 µg/mL (≈ 8.78 µM)
Vaccinia virus; [18]
  EC50: 4.35 µg/mL (≈ 15.6 µM)
Vaccinia virus; [19]
  EC50: 2.43 µg/mL (≈ 8.7 µM)
Vaccinia virus; [20]
  EC50: 5.82 µg/mL (≈ 20.8 µM)
Cowpox virus (Brighton)
  EC50: 8.43 µg/mL (≈ 30.2 µM)
Orf virus (NZ2)
  EC50: 0.2 µg/mL (≈ 0.716 µM)
[9]
  EC50 Vaccinia virus (Western Reserve) wild-type: 3.1 µg/mL (≈ 11.1 µM)
  EC50 recombinant vaccinia virus 314 + 684: 39.5 µg/mL
  EC50 recombinant vaccinia virus 684: 14.8 µg/mL
  EC50 recombinant vaccinia virus A314T: 22.2 µg/mL
[3]
  EC50: 0.16 µg/mL (≈ 0.573 µM)
[4]
  EC50: 0.54 µg/mL (≈ 1.93 µM)
[5]; [21]
  EC50: 5.56 µg/mL (≈ 19.9 µM)
[5]; [22]
  EC50: 5.87 µg/mL (≈ 21 µM)
[5]; [23]
  EC50: 4.72 µg/mL (≈ 16.9 µM)
Murine polyomavirus; [24]
  EC50: 5.78 µg/mL (≈ 20.7 µM)
Murine polyomavirus; [25]
  EC50: 5.89 µg/mL (≈ 21.1 µM)
Murine polyomavirus; [26]
  EC50: 2.76 µg/mL (≈ 9.89 µM)
Murine polyomavirus; [27]
  EC50: 6.54 µg/mL (≈ 23.4 µM)
[10]; read-out: EC50 MCV 06/02
  EC50: 0.76 µg/mL (≈ 2.72 µM)
[10]; read-out: EC50 MCV 06/03
  EC50: 0.55 µg/mL (≈ 1.97 µM)
[10]; read-out: EC50 MCV 06/04
  EC50: 0.55 µg/mL (≈ 1.97 µM)
[10]; read-out: EC50 MCV 06/06
  EC50: 0.6 µg/mL (≈ 2.15 µM)
[11]; 2 h, read-out: EC50 Vaccinia (Lederle strain), Treatment from 2 h till end of experiment
  EC50: 3.98 µg/mL (≈ 14.3 µM)
[11]; read-out: EC50 Vaccinia (Lederle strain), Pretreatment (−16 hours)
  EC50: 5 µg/mL (≈ 17.9 µM)
[11]; read-out: EC50 Vaccinia (Lederle strain), Treatment 2-4 hours
  EC50: 20 µg/mL (≈ 71.6 µM)
[11]; read-out: EC50 Vaccinia (Lederle strain), Treatment 2-6 hours
  EC50: 9.06 µg/mL (≈ 32.5 µM)
[11]; read-out: EC50 Vaccinia (Lederle strain), Treatment 2-8 hours
  EC50: 10 µg/mL (≈ 35.8 µM)
HSV-1 (Kos strain); 2 h, read-out: EC50 HSV-1 (Kos strain), Treatment from 2 h till end of experiment
  EC50: 0.43 µg/mL (≈ 1.54 µM)
HSV-1 (Kos strain); read-out: EC50 HSV-1 (Kos strain), Pretreatment (−16 hours)
  EC50: 1 µg/mL (≈ 3.58 µM)
HSV-1 (Kos strain); read-out: EC50 HSV-1 (Kos strain), Treatment 2-4 hours
  EC50: 2.51 µg/mL (≈ 8.99 µM)
HSV-1 (Kos strain); read-out: EC50 HSV-1 (Kos strain), Treatment 2-6 hours
  EC50: 1.1 µg/mL (≈ 3.94 µM)
HSV-1 (Kos strain); read-out: EC50 HSV-1 (Kos strain), Treatment 2-8 hours
  EC50: 1 µg/mL (≈ 3.58 µM)
HEL cells
  Toxicity MCC (microscop): >79 µg/mL
HSB-2 cells
  Toxicity MCC (microscopy), HSB-2 cells: 19 µg/mL
MOLT-3 cells
  Toxicity MCC (microscopy), MOLT-3 cells: 32 µg/mL
In vitro [6]
  CC50: 68.6 µg/mL (≈ 246 µM)
In vitro [7]
  CC50: 79.4 µg/mL (≈ 284 µM)
In vitro [8]
  CC50: 84.3 µg/mL (≈ 302 µM)
In vitro [12]
  CC50: > 79 µg/mL
